Usually Kd stands for the equilibrium constant for the complex coming apart. A lower Kd goes with tighter binding.

The structures appear in SMILES notation.

The source of these data is publication PMC11239938, “Inhibition of DUSP18 impairs cholesterol biosynthesis and promotes anti-tumor immunity in colorectal cancer” (Nature Communications, 2024).

The target in assay [1] is T1, DUSP18 (Homo sapiens, UniProt Q8NEJ0).
T1 construct: purified human DUSP18 for MST (Methods: cell samples lysed with RIPA buffer); recombinant GST-DUSP18-His for dephosphorylation assay; endogenous in HCT116 and SW480 cells for CETSA
T1 sequence (Q8NEJ0 1-188): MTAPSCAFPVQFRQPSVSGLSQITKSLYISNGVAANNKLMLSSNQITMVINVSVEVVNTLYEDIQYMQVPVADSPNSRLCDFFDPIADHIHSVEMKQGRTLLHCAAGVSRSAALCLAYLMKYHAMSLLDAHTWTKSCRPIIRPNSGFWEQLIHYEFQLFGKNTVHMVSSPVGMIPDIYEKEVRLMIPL
As to the kind of experiment: microscale thermophoresis. As to the method:
microscale thermophoresis on DUSP18 | Kd) value was determined as the binding of Lumacaftor to purified human DUSP18
For orientation: In MST a laser heats a spot of the sample, and binding alters the fluorescence response.

The target in assay [2] is T1, DUSP18. Kind of assay: in vitro dephosphorylation of Flag-USF1, phospho-immunoblot. In kind it is biochemical. The following applies: 40 μM Lumacaftor; recombinant GST-DUSP18-His; substrate Flag-USF1 WT. A general note: In western blotting, separated proteins are transferred to a membrane and probed.

Take `Cc1ccc(NC(=O)C2(c3ccc4c(c3)OC(F)(F)O4)CC2)nc1-c1cccc(C(=O)O)c1` [Lumacaftor]: binding on DUSP18 [1] was characterised by a dissociation constant (Kd) of 29.5 ± 3.5 µM. Also, the “in vitro dephosphorylation of Flag-USF1, phospho-immunoblot” value at DUSP18 [2] was “Lumacaftor inhibited the ability of purified DUSP18 to dephosphorylate WT USF1”.
